Measurements reported in PMC5218480 (PLoS ONE, 2017).

Tested on: MV-4-11 cells
Assay: Gene expression microarray analysis (Affymetrix PrimeView) and GSEA
Assay type: cell-based, human
Set-up: RFU PODN (11730768_x_at) / Fold change /veh PODN (11730768_x_at) / RFU LINC00158 (11744669_a_at) / Fold change /veh LINC00158 (11744669_a_at) / RFU DUSP10 (11751237_a_at) / Fold change /veh DUSP10 (11751237_a_at) / RFU ID3 (11757404_x_at) / Fold change /veh ID3 (11757404_x_at) / RFU PLEKHG5 (11737974_s_at) / Fold change /veh PLEKHG5 (11737974_s_at) / RFU LRRC4B (11730491_at) / Fold change /veh LRRC4B (11730491_at) / RFU GIMAP4 (11747438_a_at) / Fold change /veh GIMAP4 (11747438_a_at) / RFU KRT8 (11758183_x_at) / Fold change /veh KRT8 (11758183_x_at) / RFU CNN1 (11734310_a_at) / Fold change /veh CNN1 (11734310_a_at) / RFU VPS37D (11726825_at) / Fold change /veh VPS37D (11726825_at) / RFU C10orf10 (11716522_x_at) / Fold change /veh C10orf10 (11716522_x_at) / RFU KIR2DL2 /// KIR2DL4 /// KIR2DL5A /// KIR2DL5B /// KIR2DS1 /// KIR2DS2 /// KIR2DS3 /// KIR2DS4 /// KIR3DL3 /// KIR3DL3 /// KIR3DS1 (11738374_at) / Fold change /veh KIR2DL2 /// KIR2DL4 /// KIR2DL5A /// KIR2DL5B /// KIR2DS1 /// KIR2DS2 /// KIR2DS3 /// KIR2DS4 /// KIR3DL3 /// KIR3DL3 /// KIR3DS1 (11738374_at) / RFU C1QL1 (11718748_at) / Fold change /veh C1QL1 (11718748_at) / RFU TMPRSS4 (11747572_a_at) / Fold change /veh TMPRSS4 (11747572_a_at) / RFU HAMP (11756126_x_at) / Fold change /veh HAMP (11756126_x_at) / RFU RNFT2 (11725882_a_at) / Fold change /veh RNFT2 (11725882_a_at) / RFU NR4A2 (11747474_a_at) / Fold change /veh NR4A2 (11747474_a_at) / RFU ABCC12 (11746883_a_at) / Fold change /veh ABCC12 (11746883_a_at) / RFU TMEM136 (11760407_x_at) / Fold change /veh TMEM136 (11760407_x_at) / RFU CLDN22 /// WWC2 (11732394_at) / Fold change /veh CLDN22 /// WWC2 (11732394_at) / RFU HLA-DPB1 (11760878_x_at) / Fold change /veh HLA-DPB1 (11760878_x_at) / RFU SPINT1 (11716480_a_at) / Fold change /veh SPINT1 (11716480_a_at) / RFU GAP43 (11754022_s_at) / Fold change /veh GAP43 (11754022_s_at) / RFU A4GNT (11735810_at) / Fold change /veh A4GNT (11735810_at) / RFU PRB3 (11715151_x_at) / Fold change /veh PRB3 (11715151_x_at) / RFU TUBB4B (11761932_at) / Fold change /veh TUBB4B (11761932_at) / RFU CAPN14 (11732068_a_at) / Fold change /veh CAPN14 (11732068_a_at) / RFU TMCC2 (11721928_a_at) / Fold change /veh TMCC2 (11721928_a_at) / RFU IRGQ (11745062_a_at) / Fold change /veh IRGQ (11745062_a_at) / RFU FAM174B (11720279_a_at) / Fold change /veh FAM174B (11720279_a_at) / RFU TMPRSS4 (11748680_a_at) / Fold change /veh TMPRSS4 (11748680_a_at) / RFU FAM212B (11763350_a_at) / Fold change /veh FAM212B (11763350_a_at) / RFU PLEKHG5 (11743358_a_at) / Fold change /veh PLEKHG5 (11743358_a_at) / RFU ZSCAN30 (11745921_a_at) / Fold change /veh ZSCAN30 (11745921_a_at) / RFU CMKLR1 (11741424_a_at) / Fold change /veh CMKLR1 (11741424_a_at) / RFU LOC101060620 /// MAPK8IP1 (11723275_at) / Fold change /veh LOC101060620 /// MAPK8IP1 (11723275_at) / RFU SPTSSB (11747773_x_at) / Fold change /veh SPTSSB (11747773_x_at) / RFU PRSS12 (11739890_at) / Fold change /veh PRSS12 (11739890_at) / RFU BIN1 (11741810_x_at) / Fold change /veh BIN1 (11741810_x_at) / RFU WNT11 (11732464_a_at) / Fold change /veh WNT11 (11732464_a_at) / RFU C10orf10 (11716521_a_at) / Fold change /veh C10orf10 (11716521_a_at) / RFU C5orf56 (11738089_at) / Fold change /veh C5orf56 (11738089_at) / RFU CYB561 (11721691_x_at) / Fold change /veh CYB561 (11721691_x_at) / RFU ANKRD19P (11752326_a_at) / Fold change /veh ANKRD19P (11752326_a_at) / RFU OR2T12 /// OR2T33 /// OR2T8 (11738714_s_at) / Fold change /veh OR2T12 /// OR2T33 /// OR2T8 (11738714_s_at) / RFU VCAN (11748164_a_at) / Fold change /veh VCAN (11748164_a_at) / RFU JSRP1 (11732532_at) / Fold change /veh JSRP1 (11732532_at) / RFU KRTAP10-11 (11738290_x_at) / Fold change /veh KRTAP10-11 (11738290_x_at) / RFU MYO3A (11730013_a_at) / Fold change /veh MYO3A (11730013_a_at) / RFU EBF3 (11725865_a_at) / Fold change /veh EBF3 (11725865_a_at) / RFU CAMK2N1 (11719241_x_at) / Fold change /veh CAMK2N1 (11719241_x_at) / RFU C5orf56 (11738088_a_at) / Fold change /veh C5orf56 (11738088_a_at) / RFU OLFML3 (11715873_a_at) / Fold change /veh OLFML3 (11715873_a_at) / RFU LOC100653217 /// NTM (11731650_a_at) / Fold change /veh LOC100653217 /// NTM (11731650_a_at) / RFU MAPK11 (11762145_a_at) / Fold change /veh MAPK11 (11762145_a_at) / RFU FIZ1 (11724087_x_at) / Fold change /veh FIZ1 (11724087_x_at) / RFU OASL (11726364_x_at) / Fold change /veh OASL (11726364_x_at) / RFU SOX15 (11748057_x_at) / Fold change /veh SOX15 (11748057_x_at) / RFU CD79A (11719716_a_at) / Fold change /veh CD79A (11719716_a_at) / RFU HIST1H1D (11736915_at) / Fold change /veh HIST1H1D (11736915_at) / RFU CASKIN2 (11723855_a_at) / Fold change /veh CASKIN2 (11723855_a_at) / RFU LOC730098 (11760151_x_at) / Fold change /veh LOC730098 (11760151_x_at) / RFU OR4N2 (11742367_at) / Fold change /veh OR4N2 (11742367_at) / RFU PRRT2 (11749266_a_at) / Fold change /veh PRRT2 (11749266_a_at) / RFU SNX32 (11753110_a_at) / Fold change /veh SNX32 (11753110_a_at) / RFU CDHR5 (11726645_a_at) / Fold change /veh CDHR5 (11726645_a_at) / RFU RCAN1 (11760418_a_at) / Fold change /veh RCAN1 (11760418_a_at) / RFU FAM167A (11723789_a_at) / Fold change /veh FAM167A (11723789_a_at) / RFU FAM26E (11764081_at) / Fold change /veh FAM26E (11764081_at) / RFU ISYNA1 (11749810_s_at) / Fold change /veh ISYNA1 (11749810_s_at) / RFU ACY1 (11761880_at) / Fold change /veh ACY1 (11761880_at) / RFU 11764098_at / Fold change /veh 11764098_at / RFU SAMD14 (11745864_x_at) / Fold change /veh SAMD14 (11745864_x_at) / RFU NPB (11741838_a_at) / Fold change /veh NPB (11741838_a_at) / RFU TMPRSS6 (11731388_a_at) / Fold change /veh TMPRSS6 (11731388_a_at) / RFU KRTAP10-2 (11738614_at) / Fold change /veh KRTAP10-2 (11738614_at) / RFU ARHGAP8 /// PRR5-ARHGAP8 (11727945_x_at) / Fold change /veh ARHGAP8 /// PRR5-ARHGAP8 (11727945_x_at) / RFU KRTAP5-7 /// NADSYN1 (11734609_at) / Fold change /veh KRTAP5-7 /// NADSYN1 (11734609_at) / RFU RASL12 (11751679_a_at) / Fold change /veh RASL12 (11751679_a_at) / RFU CDKN2B (11736163_a_at) / Fold change /veh CDKN2B (11736163_a_at) / RFU PRF1 (11729649_at) / Fold change /veh PRF1 (11729649_at) / RFU, ZNF638 /// ZNF638-IT1 / Fold change vs veh, ZNF638 /// ZNF638-IT1 / RFU, PANK3 / Fold change vs veh, PANK3 / RFU, SH3YL1 / Fold change vs veh, SH3YL1 / RFU, ZEB2 / Fold change vs veh, ZEB2 / RFU, NRIP1 / Fold change vs veh, NRIP1 / RFU, PTTG1IP / Fold change vs veh, PTTG1IP / RFU, CAPN2 / Fold change vs veh, CAPN2 / RFU, MED14 / Fold change vs veh, MED14 / RFU, SNORA58 / Fold change vs veh, SNORA58 / RFU, C1orf63 / Fold change vs veh, C1orf63 / RFU, LRRFIP1 / Fold change vs veh, LRRFIP1 / RFU, NDUFAF7 / Fold change vs veh, NDUFAF7 / RFU, SLC12A2 / Fold change vs veh, SLC12A2 / RFU, IBTK / Fold change vs veh, IBTK / RFU, ESF1 / Fold change vs veh, ESF1 / Fold change vs veh, TMEM50B / RFU, TAOK1 / Fold change vs veh, TAOK1 / RFU, ACBD3 / Fold change vs veh, ACBD3 / RFU, TMA16 / Fold change vs veh, TMA16 / RFU, RWDD3 / Fold change vs veh, RWDD3 / RFU, BCAT1 / Fold change vs veh, BCAT1 / RFU, EDEM3 / Fold change vs veh, EDEM3 / RFU, TMEM33 / Fold change vs veh, TMEM33 / RFU, WDR75 / Fold change vs veh, WDR75 / RFU, AHCTF1 / Fold change vs veh, AHCTF1 / RFU, TFRC / Fold change vs veh, TFRC / RFU, ZDHHC17 / Fold change vs veh, ZDHHC17 / RFU, NOM1 / Fold change vs veh, NOM1 / RFU, ARL8B / Fold change vs veh, ARL8B / RFU, ZBTB11 / Fold change vs veh, ZBTB11 / RFU, TAMM41 / Fold change vs veh, TAMM41 / RFU, KIAA1704 /// LOC100996395 / Fold change vs veh, KIAA1704 /// LOC100996395 / RFU, ING1 / Fold change vs veh, ING1 / RFU, TRMT61B / Fold change vs veh, TRMT61B / RFU, FUBP3 / Fold change vs veh, FUBP3 / RFU, TP53 / Fold change vs veh, TP53 / RFU, TNKS2 / Fold change vs veh, TNKS2 / RFU, ZFP14 / Fold change vs veh, ZFP14 / RFU, ACTR2 / Fold change vs veh, ACTR2 / RFU, PPP3R1 / Fold change vs veh, PPP3R1 / RFU, PIK3R1 / Fold change vs veh, PIK3R1 / RFU, HNRNPA1 / Fold change vs veh, HNRNPA1 / RFU, RNF170 / Fold change vs veh, RNF170 / RFU, ZNF28 / Fold change vs veh, ZNF28 / RFU, RNGTT / Fold change vs veh, RNGTT / RFU, OGT / Fold change vs veh, OGT / RFU, BRD1 / Fold change vs veh, BRD1 / RFU, MARS / Fold change vs veh, MARS / RFU, ZNF655 / Fold change vs veh, ZNF655 / RFU, FAHD1 / Fold change vs veh, FAHD1 / RFU, BDP1 / Fold change vs veh, BDP1 / RFU, LRRCC1 / Fold change vs veh, LRRCC1 / RFU, ARID1A / Fold change vs veh, ARID1A / RFU, ZNF146 / Fold change vs veh, ZNF146 / RFU, ZNF330 / Fold change vs veh, ZNF330 / RFU, GPN3 / Fold change vs veh, GPN3 / RFU, C9orf123 / Fold change vs veh, C9orf123 / RFU, N4BP2L2 / Fold change vs veh, N4BP2L2 / RFU, ARFIP1 / Fold change vs veh, ARFIP1 / RFU, FAM179B / Fold change vs veh, FAM179B / RFU, BCL10 / Fold change vs veh, BCL10 / RFU, UHRF1BP1L / Fold change vs veh, UHRF1BP1L / RFU, BET1 / Fold change vs veh, BET1 / RFU, CNOT2 / Fold change vs veh, CNOT2 / RFU, ZNF268 / Fold change vs veh, ZNF268 / Fold change vs veh, ZNF507 / RFU, DGCR2 / Fold change vs veh, DGCR2 / RFU, WDSUB1 / Fold change vs veh, WDSUB1 / Fold change vs veh, HSP90B1 /// MIR3652 / RFU, ADSS / Fold change vs veh, ADSS / RFU, GK / Fold change vs veh, GK / RFU, ZNF148 / Fold change vs veh, ZNF148 / RFU, TAF9 / Fold change vs veh, TAF9 / RFU, SLC1A5 / Fold change vs veh, SLC1A5 / RFU, SLMO2 / Fold change vs veh, SLMO2 / RFU, ABCC4 / Fold change vs veh, ABCC4 / RFU, LOC101060439 /// RAP1B / Fold change vs veh, LOC101060439 /// RAP1B / RFU, RFX7 / Fold change vs veh, RFX7 / RFU, GTPBP10 / Fold change vs veh, GTPBP10 / RFU, CNEP1R1 / Fold change vs veh, CNEP1R1 / RFU, BIVM-ERCC5 /// ERCC5 / Fold change vs veh, BIVM-ERCC5 /// ERCC5 / RFU, ILF3 / Fold change vs veh, ILF3 / RFU 11762660_at / Fold change /veh 11762660_at / RFU VCAN (11757783_s_at) / Fold change /veh VCAN (11757783_s_at) / RFU DDX43 (11728927_at) / Fold change /veh DDX43 (11728927_at) / RFU KRT8 (11758188_x_at) / Fold change /veh KRT8 (11758188_x_at) / RFU NKD1 (11759106_at) / Fold change /veh NKD1 (11759106_at) / RFU SRD5A1 (11742802_a_at) / Fold change /veh SRD5A1 (11742802_a_at) / RFU TPSAB1 /// TPSB2 (11721975_s_at) / Fold change /veh TPSAB1 /// TPSB2 (11721975_s_at) / RFU GSTM3 (11746129_a_at) / Fold change /veh GSTM3 (11746129_a_at) / RFU IL23R (11737362_x_at) / Fold change /veh IL23R (11737362_x_at) / RFU TMEM51 (11727254_a_at) / Fold change /veh TMEM51 (11727254_a_at) / RFU PIWIL2 (11732686_x_at) / Fold change /veh PIWIL2 (11732686_x_at) / RFU ORM1 (11744905_x_at) / Fold change /veh ORM1 (11744905_x_at) / RFU CCDC152 (11743942_at) / Fold change /veh CCDC152 (11743942_at) / RFU ECM1 (11717891_a_at) / Fold change /veh ECM1 (11717891_a_at) / RFU IL23R (11748794_a_at) / Fold change /veh IL23R (11748794_a_at) / RFU TNFAIP8L3 (11732012_x_at) / Fold change /veh TNFAIP8L3 (11732012_x_at) / RFU MBOAT4 (11741988_at) / Fold change /veh MBOAT4 (11741988_at) / RFU 11764193_at / Fold change /veh 11764193_at / RFU TMEM53 (11763286_at) / Fold change /veh TMEM53 (11763286_at) / RFU MAGEB2 (11727129_at) / Fold change /veh MAGEB2 (11727129_at) / RFU TMEM200A (11744735_a_at) / Fold change /veh TMEM200A (11744735_a_at) / RFU CCDC152 (11751479_a_at) / Fold change /veh CCDC152 (11751479_a_at) / RFU FAM211A (11726209_a_at) / Fold change /veh FAM211A (11726209_a_at) / RFU RGS16 (11746705_a_at) / Fold change /veh RGS16 (11746705_a_at) / RFU VCAN (11755009_s_at) / Fold change /veh VCAN (11755009_s_at) / RFU RHOB (11743442_s_at) / Fold change /veh RHOB (11743442_s_at) / RFU RGS16 (11720943_a_at) / Fold change /veh RGS16 (11720943_a_at) / RFU RGS16 (11720944_at) / Fold change /veh RGS16 (11720944_at) / RFU, VPS4B / Fold change vs veh, VPS4B / RFU, CREB1 / Fold change vs veh, CREB1 / RFU, DNAJC13 / Fold change vs veh, DNAJC13 / RFU, GNAQ / Fold change vs veh, GNAQ / RFU, CDK5R1 / Fold change vs veh, CDK5R1 / RFU, ZRANB3 / Fold change vs veh, ZRANB3 / RFU, CUL4A / Fold change vs veh, CUL4A / RFU, CCNY / Fold change vs veh, CCNY / RFU, UFL1 / Fold change vs veh, UFL1 / RFU, COG3 / Fold change vs veh, COG3 / RFU, DIAPH2 / Fold change vs veh, DIAPH2 / RFU, SKA2 / Fold change vs veh, SKA2 / RFU, AFF3 / Fold change vs veh, AFF3 / RFU, LMF1 / Fold change vs veh, LMF1 / RFU, IPO11 / Fold change vs veh, IPO11 / RFU, DFFB / Fold change vs veh, DFFB / RFU, FOXP1 / Fold change vs veh, FOXP1 / RFU, CARD8 / Fold change vs veh, CARD8 / RFU, STRN3 / Fold change vs veh, STRN3 / RFU, ADK / Fold change vs veh, ADK / RFU, RASSF2 / Fold change vs veh, RASSF2 / RFU, WIPF1 / Fold change vs veh, WIPF1 / RFU, LARP1B / Fold change vs veh, LARP1B / RFU, RASA1 / Fold change vs veh, RASA1 / RFU, RB1 / Fold change vs veh, RB1 / RFU, PPFIA1 / Fold change vs veh, PPFIA1 / RFU, MAT2A / Fold change vs veh, MAT2A / RFU, CCT5 / Fold change vs veh, CCT5 / RFU, WDR92 / Fold change vs veh, WDR92 / RFU, CUX1 / Fold change vs veh, CUX1 / RFU, TTC7A / Fold change vs veh, TTC7A / RFU, TMEM135 / Fold change vs veh, TMEM135 / RFU, DEPTOR / Fold change vs veh, DEPTOR / RFU, CPM / Fold change vs veh, CPM / RFU, DNAJB6 / Fold change vs veh, DNAJB6 / RFU, CACNA2D3 / Fold change vs veh, CACNA2D3 / RFU, DTX4 / Fold change vs veh, DTX4 / RFU, TFCP2 / Fold change vs veh, TFCP2 / RFU, GMCL1 /// GMCL1P1 / Fold change vs veh, GMCL1 /// GMCL1P1 / RFU, AEBP2 / Fold change vs veh, AEBP2 / RFU, SNHG1 /// SNORD22 /// SNORD25 /// SNORD26 /// SNORD27 /// SNORD28 /// SNORD29 /// SNORD31 / Fold change vs veh, SNHG1 /// SNORD22 /// SNORD25 /// SNORD26 /// SNORD27 /// SNORD28 /// SNORD29 /// SNORD31 / Fold change (Aza/veh), C12orf56 (ProbeSet 11735607_a_at) / Fold change (ACY-1035/veh), C12orf56 (ProbeSet 11735607_a_at) / Fold change (Aza/veh), FGFR1OP (ProbeSet 11751329_s_at) / Fold change (ACY-1035/veh), FGFR1OP (ProbeSet 11751329_s_at) / Fold change (Aza/veh), VPS36 (ProbeSet 11739960_a_at) / Fold change (ACY-1035/veh), VPS36 (ProbeSet 11739960_a_at) / RFU SYPL1 (11715823_x_at) / Fold change /veh SYPL1 (11715823_x_at) / RFU IGFBP7 (11715501_s_at) / Fold change /veh IGFBP7 (11715501_s_at) / RFU REEP3 (11722064_at) / Fold change /veh REEP3 (11722064_at) / RFU IGLL1 (11728026_x_at) / Fold change /veh IGLL1 (11728026_x_at): dose or concentration left out as unconfirmed
Conditions: ProbeSet 11720269_a_at; LIST B

Nc1ccc(-c2cccs2)cc1NC(=O)c1ccc2c(c1)cc(C1CC1)n2CCN1CCOCC1 [ACY-1035]
RFU, IBTK: 758.00 RFU
